The record followed here is ChEMBL document CHEMBL1201862, “PubChem BioAssay data set” (2004).

Calls of active or inactive are those of the source.

For one experiment, the target named is T1, Estrogen receptor (Homo sapiens, UniProt P03372).
T1 sequence (P03372 whole entry): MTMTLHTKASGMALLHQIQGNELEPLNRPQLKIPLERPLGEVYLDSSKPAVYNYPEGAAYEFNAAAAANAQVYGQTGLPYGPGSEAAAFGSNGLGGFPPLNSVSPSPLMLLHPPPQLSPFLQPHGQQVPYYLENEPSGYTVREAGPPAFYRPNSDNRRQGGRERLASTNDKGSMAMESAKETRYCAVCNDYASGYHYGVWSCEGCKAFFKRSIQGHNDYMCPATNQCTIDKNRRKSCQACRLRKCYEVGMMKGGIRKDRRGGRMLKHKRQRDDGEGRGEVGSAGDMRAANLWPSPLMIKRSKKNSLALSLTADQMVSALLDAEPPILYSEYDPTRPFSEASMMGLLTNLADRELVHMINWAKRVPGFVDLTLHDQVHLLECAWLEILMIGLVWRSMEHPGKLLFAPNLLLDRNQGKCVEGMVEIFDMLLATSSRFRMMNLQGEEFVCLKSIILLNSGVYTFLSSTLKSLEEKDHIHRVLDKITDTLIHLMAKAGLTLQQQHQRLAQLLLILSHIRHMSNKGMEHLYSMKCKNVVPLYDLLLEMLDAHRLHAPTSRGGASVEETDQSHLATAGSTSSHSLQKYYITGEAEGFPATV

The target of another experiment is Estrogen receptor beta (Homo sapiens, UniProt Q92731).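 Also: recombinant ER-beta bound to coactivator SRC1 peptide in presence of estradiol agonist; inhibitors block coactivator peptide binding and lower the FRET signal.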
The target in the next experiment is T2, Caspase-6 (Homo sapiens, UniProt P55212).
T2 sequence (P55212 whole entry): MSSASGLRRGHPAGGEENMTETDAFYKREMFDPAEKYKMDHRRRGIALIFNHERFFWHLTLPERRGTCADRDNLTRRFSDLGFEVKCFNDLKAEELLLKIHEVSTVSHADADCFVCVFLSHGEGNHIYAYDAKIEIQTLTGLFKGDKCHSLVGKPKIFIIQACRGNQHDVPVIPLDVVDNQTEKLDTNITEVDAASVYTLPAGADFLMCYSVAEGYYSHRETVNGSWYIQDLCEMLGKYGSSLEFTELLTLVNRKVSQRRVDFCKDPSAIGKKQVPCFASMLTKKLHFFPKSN
Put plainly: human caspase-6 inhibitors, dose response, biochemical, VEID-R110 fluorescence, cherry-pick (AID 720632).

Experiment [1] is described as follows: Luminescence Cell-Based Dose Retest to Confirm Inhibitors of Cancer Stem Cells. [Related pubchem assays (depositor defined):AID2717, AID2721]. Type of experiment: functional. The note with it: Homo sapiens.
Experiment [2] addresses Disintegrin and metalloproteinase domain-containing protein 17 (Homo sapiens, UniProt P78536). Put plainly: ADAM17 protease inhibitors, dose response, counter-screen for ADAM10 exosite inhibitor project, biochemical, quenched FRET substrate (AID 743253).
Experiment [3] addresses T3, Ubiquitin-conjugating enzyme E2 N (Homo sapiens, UniProt P61088).
T3 sequence (P61088 whole entry): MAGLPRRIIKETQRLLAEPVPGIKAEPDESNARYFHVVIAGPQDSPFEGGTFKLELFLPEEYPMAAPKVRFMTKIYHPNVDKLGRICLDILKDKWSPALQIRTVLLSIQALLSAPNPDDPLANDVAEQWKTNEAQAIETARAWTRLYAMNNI
Type of experiment: functional.

Experiment [4] addresses T4, DNA repair and recombination protein RAD54-like (Homo sapiens, UniProt Q92698).
T4 sequence (Q92698 whole entry): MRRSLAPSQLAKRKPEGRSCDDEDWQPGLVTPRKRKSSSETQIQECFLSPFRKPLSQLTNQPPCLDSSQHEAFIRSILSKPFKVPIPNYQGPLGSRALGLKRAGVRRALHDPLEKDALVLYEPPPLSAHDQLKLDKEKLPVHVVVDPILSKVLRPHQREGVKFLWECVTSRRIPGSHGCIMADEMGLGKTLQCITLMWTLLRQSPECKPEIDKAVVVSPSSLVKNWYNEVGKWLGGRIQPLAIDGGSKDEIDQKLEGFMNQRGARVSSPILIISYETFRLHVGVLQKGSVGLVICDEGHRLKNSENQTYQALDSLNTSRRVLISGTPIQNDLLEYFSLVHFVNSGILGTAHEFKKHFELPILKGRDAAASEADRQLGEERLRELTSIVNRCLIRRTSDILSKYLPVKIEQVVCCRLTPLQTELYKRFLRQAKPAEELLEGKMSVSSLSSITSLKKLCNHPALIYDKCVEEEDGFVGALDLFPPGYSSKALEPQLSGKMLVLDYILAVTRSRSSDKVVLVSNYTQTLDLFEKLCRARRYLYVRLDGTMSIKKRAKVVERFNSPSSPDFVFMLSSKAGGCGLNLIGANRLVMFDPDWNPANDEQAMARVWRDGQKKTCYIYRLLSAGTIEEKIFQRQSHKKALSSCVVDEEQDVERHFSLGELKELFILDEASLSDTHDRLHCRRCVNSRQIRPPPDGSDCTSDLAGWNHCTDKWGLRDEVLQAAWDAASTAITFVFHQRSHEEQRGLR
Put plainly: inhibitors of human RAD54 branch migration, confirmation, biochemical, fluorescence, cherry-picked samples, dose series (AID 651657). Type of experiment: functional.

The target in experiment [5] is T5, Long-chain-fatty-acid--AMP ligase FadD28 (Mycobacterium tuberculosis, UniProt P9WQ59).
T5 sequence (P9WQ59 whole entry): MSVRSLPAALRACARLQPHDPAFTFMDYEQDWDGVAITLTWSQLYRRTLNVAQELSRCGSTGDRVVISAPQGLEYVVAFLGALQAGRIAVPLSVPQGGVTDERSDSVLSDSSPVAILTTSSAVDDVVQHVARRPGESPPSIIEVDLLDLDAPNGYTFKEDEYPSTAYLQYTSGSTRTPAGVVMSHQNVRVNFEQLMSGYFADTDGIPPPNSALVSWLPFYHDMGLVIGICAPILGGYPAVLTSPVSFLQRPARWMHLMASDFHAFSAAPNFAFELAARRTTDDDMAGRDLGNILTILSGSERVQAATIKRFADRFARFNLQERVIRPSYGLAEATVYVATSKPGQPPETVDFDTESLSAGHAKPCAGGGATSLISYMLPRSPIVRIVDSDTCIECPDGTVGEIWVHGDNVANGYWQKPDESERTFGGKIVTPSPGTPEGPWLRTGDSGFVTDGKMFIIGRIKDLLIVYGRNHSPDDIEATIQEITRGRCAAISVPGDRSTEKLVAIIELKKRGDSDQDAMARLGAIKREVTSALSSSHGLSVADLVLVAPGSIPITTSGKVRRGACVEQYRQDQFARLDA
Put plainly: Fluorescence polarization aasay to screen for inhibitors that compete for the binding of FadD28 to a bisubstrate Measured in Biochemical System Using Plate Reader - 2147-01_Inhibitor_Dose_CherryPick_Activity. Type of experiment: functional, Mycobacterium tuberculosis H37Rv.

Another experiment deals with T6, Leucine aminopeptidase (Plasmodium falciparum 3D7, UniProt Q8IL11).
T6 sequence (Q8IL11 whole entry): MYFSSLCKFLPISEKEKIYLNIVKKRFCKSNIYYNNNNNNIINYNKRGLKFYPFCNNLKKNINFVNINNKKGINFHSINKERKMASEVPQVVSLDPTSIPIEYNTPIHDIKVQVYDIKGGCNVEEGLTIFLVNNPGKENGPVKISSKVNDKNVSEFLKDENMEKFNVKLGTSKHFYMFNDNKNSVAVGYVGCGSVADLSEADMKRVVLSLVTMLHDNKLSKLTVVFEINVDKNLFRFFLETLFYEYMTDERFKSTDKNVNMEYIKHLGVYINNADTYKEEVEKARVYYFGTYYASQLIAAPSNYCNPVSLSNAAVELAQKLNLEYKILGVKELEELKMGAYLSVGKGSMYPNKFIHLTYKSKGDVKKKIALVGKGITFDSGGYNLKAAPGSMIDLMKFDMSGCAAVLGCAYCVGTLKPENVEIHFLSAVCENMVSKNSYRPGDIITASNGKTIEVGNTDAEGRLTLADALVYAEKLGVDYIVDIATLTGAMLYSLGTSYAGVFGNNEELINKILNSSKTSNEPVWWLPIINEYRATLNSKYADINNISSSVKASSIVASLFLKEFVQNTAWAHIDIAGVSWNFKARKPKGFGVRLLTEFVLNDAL
Put plainly: P. falciparum M17LAP inhibitors, primary screen, biochemical, fluorogenic H-Leu-NHMec substrate, 1536-well (AID 1619). Type of experiment: functional.

Another experiment has as its target T7, Aspartyl aminopeptidase (Plasmodium falciparum 3D7, UniProt Q8I2J3).
T7 sequence (Q8I2J3 whole entry): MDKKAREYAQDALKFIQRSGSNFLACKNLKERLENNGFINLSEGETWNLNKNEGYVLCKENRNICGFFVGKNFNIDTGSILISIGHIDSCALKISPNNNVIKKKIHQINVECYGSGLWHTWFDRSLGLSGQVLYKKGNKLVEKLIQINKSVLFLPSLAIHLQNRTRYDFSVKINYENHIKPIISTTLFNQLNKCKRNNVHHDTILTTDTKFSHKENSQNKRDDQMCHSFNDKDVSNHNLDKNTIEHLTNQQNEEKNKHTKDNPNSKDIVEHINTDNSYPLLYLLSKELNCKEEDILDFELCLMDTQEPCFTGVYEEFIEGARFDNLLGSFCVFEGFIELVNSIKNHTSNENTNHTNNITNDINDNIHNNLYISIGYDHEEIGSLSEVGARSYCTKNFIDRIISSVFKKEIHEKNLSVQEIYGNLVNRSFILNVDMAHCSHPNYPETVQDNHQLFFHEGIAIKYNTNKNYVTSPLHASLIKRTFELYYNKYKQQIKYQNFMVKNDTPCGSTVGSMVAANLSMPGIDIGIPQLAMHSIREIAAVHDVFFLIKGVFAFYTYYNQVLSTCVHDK
Put plainly: Counterscreen for inhibitors of M1 and M17 aminopeptidases: QFRET-based biochemical high throughput dose response assay for inhibitors of the Plasmodium falciparum M18 Aspartyl Aminopeptidase (PFM18AAP). [Related PubChem assays: 1619 (Screening assay (M17LAP inhibitors).), 1445 (Screening assay (M1AAP inhibitors).)].

For the next experiment, the target named is Procathepsin L (Homo sapiens, UniProt P07711). Put plainly: cathepsin L inhibitors, dose response, counter-screen for M1/M17 aminopeptidase inhibitor project, biochemical, QFRET, 1536-well (AID 2214). A general note: A counterscreen serves to expose hits that act by an unwanted route or on another target.
The nature of experiment [6]: A Cell Based Secondary Assay To Explore Cytotoxicity of Compounds that Sensitize Mycobacterium Tuberculosis to Beta-Lactam Antibiotics. Type of experiment: functional.

Chain of Procathepsin L (P07711 whole entry): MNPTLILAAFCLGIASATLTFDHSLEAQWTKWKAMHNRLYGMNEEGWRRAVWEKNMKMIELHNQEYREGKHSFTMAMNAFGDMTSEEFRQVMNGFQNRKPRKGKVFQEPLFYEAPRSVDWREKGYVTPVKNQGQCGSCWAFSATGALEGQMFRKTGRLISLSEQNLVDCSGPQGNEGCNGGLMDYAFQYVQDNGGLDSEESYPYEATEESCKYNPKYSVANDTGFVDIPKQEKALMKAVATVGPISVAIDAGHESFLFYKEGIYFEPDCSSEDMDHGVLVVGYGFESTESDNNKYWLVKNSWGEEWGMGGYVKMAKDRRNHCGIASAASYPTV
Chain of Disintegrin and metalloproteinase domain-containing protein 17 (P78536 whole entry, the tested form may be a part): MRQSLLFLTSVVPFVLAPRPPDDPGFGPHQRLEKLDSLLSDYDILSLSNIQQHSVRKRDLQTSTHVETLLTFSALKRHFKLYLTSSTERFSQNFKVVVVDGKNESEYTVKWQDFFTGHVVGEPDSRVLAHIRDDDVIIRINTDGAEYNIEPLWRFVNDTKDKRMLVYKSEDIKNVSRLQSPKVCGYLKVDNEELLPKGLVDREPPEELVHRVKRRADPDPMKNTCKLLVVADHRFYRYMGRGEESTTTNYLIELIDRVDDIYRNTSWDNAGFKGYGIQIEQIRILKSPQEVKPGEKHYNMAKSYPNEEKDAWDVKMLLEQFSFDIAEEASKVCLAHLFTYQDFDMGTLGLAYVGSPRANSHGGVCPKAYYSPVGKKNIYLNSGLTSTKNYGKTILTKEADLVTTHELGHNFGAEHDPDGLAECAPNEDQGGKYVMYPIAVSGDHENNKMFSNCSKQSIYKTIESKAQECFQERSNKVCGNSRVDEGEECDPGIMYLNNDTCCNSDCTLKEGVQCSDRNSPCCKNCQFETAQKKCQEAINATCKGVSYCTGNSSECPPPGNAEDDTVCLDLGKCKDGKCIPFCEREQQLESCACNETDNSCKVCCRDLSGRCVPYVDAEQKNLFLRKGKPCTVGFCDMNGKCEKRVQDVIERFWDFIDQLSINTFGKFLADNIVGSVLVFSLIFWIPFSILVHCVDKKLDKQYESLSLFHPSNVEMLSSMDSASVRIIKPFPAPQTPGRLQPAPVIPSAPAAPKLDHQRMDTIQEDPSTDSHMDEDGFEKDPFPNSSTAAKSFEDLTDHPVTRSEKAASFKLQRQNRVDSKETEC
Chain of Estrogen receptor beta (Q92731 whole entry): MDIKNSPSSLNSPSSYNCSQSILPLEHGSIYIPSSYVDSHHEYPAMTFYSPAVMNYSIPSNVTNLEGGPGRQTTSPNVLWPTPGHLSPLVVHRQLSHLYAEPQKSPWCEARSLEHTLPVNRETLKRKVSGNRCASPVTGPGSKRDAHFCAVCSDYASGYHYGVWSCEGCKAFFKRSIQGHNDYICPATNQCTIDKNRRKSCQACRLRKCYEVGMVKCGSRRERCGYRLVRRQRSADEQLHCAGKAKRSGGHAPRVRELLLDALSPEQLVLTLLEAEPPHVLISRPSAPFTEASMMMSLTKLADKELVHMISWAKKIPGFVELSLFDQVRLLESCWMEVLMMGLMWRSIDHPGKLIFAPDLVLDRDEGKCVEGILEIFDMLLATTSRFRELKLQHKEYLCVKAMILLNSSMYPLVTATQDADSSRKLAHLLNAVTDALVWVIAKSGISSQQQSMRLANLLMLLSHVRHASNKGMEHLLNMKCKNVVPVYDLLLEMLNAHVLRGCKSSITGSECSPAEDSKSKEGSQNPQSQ

As a reminder, the IC50 is the concentration that gives 50% inhibition. In the case of `COC(=O)c1cnn2c(C(F)(F)F)cc(-c3ccco3)nc12`, the 50% inhibitory concentration (IC50) against Estrogen receptor is 42.4 µM (not active); on Estrogen receptor beta it was 25.9 µM (active).

As usually defined, the AC50 is the concentration at which the activity in the assay is half-maximal. For `COc1cc(SC)ccc1C(=O)OC(C)C(=O)NC1CCCC1` (stereo unspecified), the AC50 at Caspase-6 was 24.6 µM (active).

With `O=C1CC(N(CCc2ccccc2)C(=S)Nc2cc(Cl)ccc2Cl)C(=O)N1c1c(Cl)cccc1Cl` (stereo unspecified), the AC50 in experiment [1] was 1.61 µM (active). In experiment [2], the IC50 was > 69.5 µM (inactive).

Regarding `CC1CCCCN1CCNC(=O)c1cc2c(=O)n(C)c3ccccc3c2n1C` (stereo unspecified), the IC50 in [3] is > 20 µM (inactive). Moreover, in experiment [4], the concentration at half-maximal activity (AC50) is 33 µM (active).

As to `Cc1nc2c(C(=O)NCCC3=CCCCC3)cnn2c(O)c1Cl`, the AC50 in experiment [5] was > 100 µM (inactive).

With `COc1ccc(/C=C2\SC(=O)N(CC(=O)Nc3cccnc3)C2=O)cc1OC`, in experiment [5], the AC50 was 32 µM (inactive).

Take `COc1cc(NC(=O)CSc2nnc3c(C)cc4cc(C)cc(C)c4n23)c(C(=O)O)cc1OC`: the IC50 at Leucine aminopeptidase is 6 µM (active); against Aspartyl aminopeptidase, > 73.5 µM (not active); at Procathepsin L, > 59.6 µM (not active).

On to `CCCCN(C)CCN=C(S)Nc1ccc2nc(N3CCN(CC)CC3)cc(C)c2c1`, for which the half-maximal activity concentration (AC50) in experiment [4] was 16.2 µM (active).

What is called CC50 is the concentration that lowers cell viability or growth by half. Regarding `CC1(C)Cc2c(C#N)c(SCc3ccccc3)nc(N3CCOCC3)c2CO1`, in experiment [6], the CC50 is > 40 µM (active).

For `O=C(O)[C@@H]1[C@@H](CO)[C@@H]2Cn3c(ccc(/C=C/c4ccccc4)c3=O)[C@@H]2N1Cc1ccc2c(c1)OCO2`, the concentration at half-maximal activity (AC50) at Caspase-6 is 41.3 µM (active).

In the case of `CCOc1ccc(NC(=O)Nc2cccs2)cc1`, the half-maximal inhibitory concentration (IC50) on Leucine aminopeptidase was 3.22 µM (active); on Aspartyl aminopeptidase, > 73.5 µM (not active); at Procathepsin L it was > 59.6 µM (not active).

With `O=C(NC1CCS(=O)(=O)C1)c1c(NC(=O)C2COc3ccccc3O2)sc2c1CCCC2` (stereo unspecified), the half-maximal inhibitory concentration (IC50) against Estrogen receptor is > 50 µM (not active).

As to `Cc1ccc(C(=O)Nc2ccc(N3CCN(C(=O)c4cccs4)CC3)cc2)c(Cl)c1`, in [6], the half-maximal cytotoxic concentration (CC50) was > 40 µM (active).

As to `O=C(NN1C(=O)/C(=C/c2cccc(O)c2)SC1=S)c1ccccc1O`, the AC50 in [5] is 66.2 µM (active).

Regarding `CC(N)C(=O)NC(C(=O)NC(C)C(=O)Nc1cccc2ccccc12)C(C)C` (stereo unspecified), the concentration at half-maximal activity (AC50) at Caspase-6 is 10.7 µM (active).

For `O=C(O)C1CC=CCC1C(=O)Nc1cc(Cl)ccc1Cl` (stereo unspecified), the concentration for half-maximal inhibition (IC50) was 6.22 µM (active) on Leucine aminopeptidase, > 73.5 µM (not active) against Aspartyl aminopeptidase and > 59.6 µM (not active) at Procathepsin L.

Regarding `Cn1c(=O)c(C(=O)COC(=O)c2cc(C3CC3)nc3ccccc23)c(N)n(Cc2ccccc2)c1=O`, the 50% cytotoxic concentration (CC50) in experiment [6] is > 40 µM (active).
